{"source": "the supplement of paper PMC10307832", "assay_in_all_cases": "relative viability (nuclei count vs DMSO), 5 days (fraction); higher = more cells survive", "key": {"201T": {"tested_on": "201T", "outline": "(§1)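 One day after seeding in 1536-well plates, lung cancer cell lines were dosed by pin tool. Dosing was either single-drug or a fixed anchor-drug dose plus five library-drug doses (not always all listed) in √10 steps. After 5 days, nuclei were stained in one fix-and-stain step and counted on 4× images, and relative viability is the nuclei count of treated wells over that of vehicle wells, given as the median of duplicate plates.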"}, "NCI-H1650": {"tested_on": "NCI-H1650", "outline": "as §1"}, "NCI-H460": {"tested_on": "NCI-H460", "outline": "as §1"}, "CAL-12T": {"tested_on": "CAL-12T", "outline": "as §1"}, "H3255": {"tested_on": "H3255", "outline": "as §1"}, "NCI-H1651": {"tested_on": "NCI-H1651", "outline": "as §1"}, "NCI-H1792": {"tested_on": "NCI-H1792", "outline": "as §1"}, "NCI-H1915": {"tested_on": "NCI-H1915", "outline": "as §1"}, "NCI-H650": {"tested_on": "NCI-H650", "outline": "as §1"}, "NCI-H1944": {"tested_on": "NCI-H1944", "outline": "as §1"}, "BEN": {"tested_on": "BEN", "outline": "as §1"}, "ABC-1": {"tested_on": "ABC-1", "outline": "as §1"}, "NCI-H2023": {"tested_on": "NCI-H2023", "outline": "as §1"}, "NCI-H520": {"tested_on": "NCI-H520", "outline": "as §1"}, "NCI-H661": {"tested_on": "NCI-H661", "outline": "as §1"}, "LC-2-ad": {"tested_on": "LC-2-ad", "outline": "as §1"}, "PC-3 [JPC-3]": {"tested_on": "PC-3 [JPC-3]", "outline": "as §1"}, "NCI-H727": {"tested_on": "NCI-H727", "outline": "as §1"}, "NCI-H2087": {"tested_on": "NCI-H2087", "outline": "as §1"}, "NCI-H596": {"tested_on": "NCI-H596", "outline": "as §1"}, "LCLC-97TM1": {"tested_on": "LCLC-97TM1", "outline": "as §1"}, "A-427": {"tested_on": "A-427", "outline": "as §1"}}}
{"compound": "Oc1nc(-c2ccc(C(F)(F)F)cc2)nc2c1CSCC2", "note": "[XAV939] + CS(=O)(=O)CCNCc1ccc(-c2ccc3ncnc(Nc4ccc(OCc5cccc(F)c5)c(Cl)c4)c3c2)o1 [Lapatinib] (partner 2 µM)", "values": [{"measurement": "relative viability", "setting": "201T; first compound 0.08 µM", "result": 1.08}, {"measurement": "relative viability", "setting": "201T; first compound 0.253 µM", "result": 0.866}, {"measurement": "relative viability", "setting": "201T; first compound 0.8 µM", "result": 0.948}, {"measurement": "relative viability", "setting": "201T; first compound 2.53 µM", "result": 0.896}, {"measurement": "relative viability", "setting": "NCI-H1650; first compound 0.08 µM", "result": 0.762}, {"measurement": "relative viability", "setting": "NCI-H1650; first compound 0.253 µM", "result": 0.726}, {"measurement": "relative viability", "setting": "NCI-H1650; first compound 0.8 µM", "result": 0.836}, {"measurement": "relative viability", "setting": "NCI-H1650; first compound 2.53 µM", "result": 0.454}, {"measurement": "relative viability", "setting": "NCI-H460; first compound 0.08 µM", "result": 1.38}, {"measurement": "relative viability", "setting": "NCI-H460; first compound 0.253 µM", "result": 0.723}, {"measurement": "relative viability", "setting": "NCI-H460; first compound 0.8 µM", "result": 0.91}, {"measurement": "relative viability", "setting": "NCI-H460; first compound 2.53 µM", "result": 0.937}, {"measurement": "relative viability", "setting": "CAL-12T; first compound 0.08 µM", "result": 0.729}, {"measurement": "relative viability", "setting": "CAL-12T; first compound 0.253 µM", "result": 0.664}, {"measurement": "relative viability", "setting": "CAL-12T; first compound 0.8 µM", "result": 0.525}, {"measurement": "relative viability", "setting": "CAL-12T; first compound 2.53 µM", "result": 0.426}, {"measurement": "relative viability", "setting": "H3255; first compound 0.08 µM", "result": 0.19}, {"measurement": "relative viability", "setting": "H3255; first compound 0.253 µM", "result": 0.238}, {"measurement": "relative viability", "setting": "H3255; first compound 0.8 µM", "result": 0.233}, {"measurement": "relative viability", "setting": "H3255; first compound 2.53 µM", "result": 0.186}, {"measurement": "relative viability", "setting": "NCI-H1651; first compound 0.08 µM", "result": 0.822}, {"measurement": "relative viability", "setting": "NCI-H1651; first compound 0.253 µM", "result": 0.758}, {"measurement": "relative viability", "setting": "NCI-H1651; first compound 0.8 µM", "result": 0.904}, {"measurement": "relative viability", "setting": "NCI-H1651; first compound 2.53 µM", "result": 0.857}, {"measurement": "relative viability", "setting": "NCI-H1792; first compound 0.08 µM", "result": 1.14}, {"measurement": "relative viability", "setting": "NCI-H1792; first compound 0.253 µM", "result": 0.523}, {"measurement": "relative viability", "setting": "NCI-H1792; first compound 0.8 µM", "result": 0.805}, {"measurement": "relative viability", "setting": "NCI-H1792; first compound 2.53 µM", "result": 0.806}, {"measurement": "relative viability", "setting": "NCI-H1915; first compound 0.08 µM", "result": 1.13}, {"measurement": "relative viability", "setting": "NCI-H1915; first compound 0.253 µM", "result": 0.934}, {"measurement": "relative viability", "setting": "NCI-H1915; first compound 0.8 µM", "result": 1.05}, {"measurement": "relative viability", "setting": "NCI-H1915; first compound 2.53 µM", "result": 0.993}, {"measurement": "relative viability", "setting": "NCI-H650; first compound 0.08 µM", "result": 0.868}, {"measurement": "relative viability", "setting": "NCI-H650; first compound 0.253 µM", "result": 0.957}, {"measurement": "relative viability", "setting": "NCI-H650; first compound 0.8 µM", "result": 1}, {"measurement": "relative viability", "setting": "NCI-H650; first compound 2.53 µM", "result": 0.893}, {"measurement": "relative viability", "setting": "NCI-H1944; first compound 0.08 µM", "result": 1.16}, {"measurement": "relative viability", "setting": "NCI-H1944; first compound 0.253 µM", "result": 0.865}, {"measurement": "relative viability", "setting": "NCI-H1944; first compound 0.8 µM", "result": 0.834}, {"measurement": "relative viability", "setting": "NCI-H1944; first compound 2.53 µM", "result": 0.679}, {"measurement": "relative viability", "setting": "BEN; first compound 0.08 µM", "result": 0.656}, {"measurement": "relative viability", "setting": "BEN; first compound 0.253 µM", "result": 0.547}, {"measurement": "relative viability", "setting": "BEN; first compound 0.8 µM", "result": 0.584}, {"measurement": "relative viability", "setting": "BEN; first compound 2.53 µM", "result": 0.435}, {"measurement": "relative viability", "setting": "ABC-1; first compound 0.08 µM", "result": 1.34}, {"measurement": "relative viability", "setting": "ABC-1; first compound 0.253 µM", "result": 1.08}, {"measurement": "relative viability", "setting": "ABC-1; first compound 0.8 µM", "result": 1.26}, {"measurement": "relative viability", "setting": "ABC-1; first compound 2.53 µM", "result": 0.657}, {"measurement": "relative viability", "setting": "NCI-H2023; first compound 0.08 µM", "result": 0.737}, {"measurement": "relative viability", "setting": "NCI-H2023; first compound 0.253 µM", "result": 0.723}, {"measurement": "relative viability", "setting": "NCI-H2023; first compound 0.8 µM", "result": 0.674}, {"measurement": "relative viability", "setting": "NCI-H2023; first compound 2.53 µM", "result": 0.622}, {"measurement": "relative viability", "setting": "NCI-H520; first compound 0.08 µM", "result": 0.83}, {"measurement": "relative viability", "setting": "NCI-H520; first compound 0.253 µM", "result": 0.78}, {"measurement": "relative viability", "setting": "NCI-H520; first compound 0.8 µM", "result": 0.792}, {"measurement": "relative viability", "setting": "NCI-H520; first compound 2.53 µM", "result": 0.682}, {"measurement": "relative viability", "setting": "NCI-H661; first compound 0.08 µM", "result": 0.553}, {"measurement": "relative viability", "setting": "NCI-H661; first compound 0.253 µM", "result": 0.482}, {"measurement": "relative viability", "setting": "NCI-H661; first compound 0.8 µM", "result": 0.595}, {"measurement": "relative viability", "setting": "NCI-H661; first compound 2.53 µM", "result": 0.372}, {"measurement": "relative viability", "setting": "LC-2-ad; first compound 0.08 µM", "result": 0.886}, {"measurement": "relative viability", "setting": "LC-2-ad; first compound 0.253 µM", "result": 0.749}, {"measurement": "relative viability", "setting": "LC-2-ad; first compound 0.8 µM", "result": 0.954}, {"measurement": "relative viability", "setting": "LC-2-ad; first compound 2.53 µM", "result": 0.862}, {"measurement": "relative viability", "setting": "PC-3 [JPC-3]; first compound 0.08 µM", "result": 0.454}, {"measurement": "relative viability", "setting": "PC-3 [JPC-3]; first compound 0.253 µM", "result": 0.417}, {"measurement": "relative viability", "setting": "PC-3 [JPC-3]; first compound 0.8 µM", "result": 0.435}, {"measurement": "relative viability", "setting": "PC-3 [JPC-3]; first compound 2.53 µM", "result": 0.443}, {"measurement": "relative viability", "setting": "NCI-H727; first compound 0.08 µM", "result": 1.14}, {"measurement": "relative viability", "setting": "NCI-H727; first compound 0.253 µM", "result": 0.589}, {"measurement": "relative viability", "setting": "NCI-H727; first compound 0.8 µM", "result": 0.759}, {"measurement": "relative viability", "setting": "NCI-H727; first compound 2.53 µM", "result": 0.877}, {"measurement": "relative viability", "setting": "NCI-H2087; first compound 0.08 µM", "result": 1.12}, {"measurement": "relative viability", "setting": "NCI-H2087; first compound 0.253 µM", "result": 1.06}, {"measurement": "relative viability", "setting": "NCI-H2087; first compound 0.8 µM", "result": 1.08}, {"measurement": "relative viability", "setting": "NCI-H2087; first compound 2.53 µM", "result": 0.89}, {"measurement": "relative viability", "setting": "NCI-H596; first compound 0.08 µM", "result": 1.21}, {"measurement": "relative viability", "setting": "NCI-H596; first compound 0.253 µM", "result": 1.12}, {"measurement": "relative viability", "setting": "NCI-H596; first compound 0.8 µM", "result": 1.1}, {"measurement": "relative viability", "setting": "NCI-H596; first compound 2.53 µM", "result": 0.656}, {"measurement": "relative viability", "setting": "LCLC-97TM1; first compound 0.08 µM", "result": 1.11}, {"measurement": "relative viability", "setting": "LCLC-97TM1; first compound 0.253 µM", "result": 0.959}, {"measurement": "relative viability", "setting": "LCLC-97TM1; first compound 0.8 µM", "result": 0.668}, {"measurement": "relative viability", "setting": "LCLC-97TM1; first compound 2.53 µM", "result": 0.81}, {"measurement": "relative viability", "setting": "A-427; first compound 0.08 µM", "result": 1.09}, {"measurement": "relative viability", "setting": "A-427; first compound 0.253 µM", "result": 1.02}, {"measurement": "relative viability", "setting": "A-427; first compound 0.8 µM", "result": 1.11}, {"measurement": "relative viability", "setting": "A-427; first compound 2.53 µM", "result": 1.03}]}
